The results in this text go back to patent US20120129833A1, “CYCLIC KETOENOLS FOR THERAPY” (BAYER PHARMA AKTIENGESELLSCHAFT, priority 2010, published 2012).

Bounds are passed on as bounds.

Assay [1] addresses T1, recombinant human ACC1 (acetyl-CoA carboxylase 1) (Homo sapiens, UniProt Q13085).
T1 construct: NM_198834, amino acids 39—end; FLAG (C); made in house; host or cells: baculovirus-transfected insect cells (Hi5)
Kind of assay: Human ACC1 enzyme assay (HTRF ADP detection).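 Note: ADP by-product quantified by competitive HTRF immunoassay with europium cryptate anti-ADP antibody and d2-labelled ADP, read after 1 h binding at 22 °C, enzyme near 2.5 ng/µl.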 Format: biochemical. The note with it: 50 μM ATP, 20 μM acetyl-CoA, 15 min pre-incubation, 20 min at 22° C.; read-out: ACC 1 IC50.
Description: The basic principle of the assay is the measurement of adenosine diphosphate (ADP), which is formed as a by-product, by means of an HTRF®-based competitive immunoassay (HTRF=Homogeneous Time Resolved Fluorescence).
The amount of complex of d2-labelled ADP and europium cryptate-labelled anti-ADP antibody was then determined by measuring the resonance energy transfer of europium cryptate to d2.

For assay [2], the target named is T2, ACC2 (acetyl-CoA carboxylase 2) (Homo sapiens, UniProt O00763).
T2 construct: catalogue no; 50201, amino acids 39—end, expressed in baculovirus-transfected Sf9 insect cells; His (C); purchased BPS Bioscience (San Diego, Calif.) 50201; host or cells: baculovirus-transfected Sf9 insect cells
In words: Human ACC2 enzyme assay (HTRF ADP detection). Type of assay: biochemical. The note with it: 20 μM acetyl-CoA, 15 min pre-incubation, 20 min at 22° C.; read-out: ACC 2 IC50. On the technique in general: TR-FRET usually uses a lanthanide donor and a delayed reading to cut background.

T2 sequence (O00763 39-2458 limits assumed): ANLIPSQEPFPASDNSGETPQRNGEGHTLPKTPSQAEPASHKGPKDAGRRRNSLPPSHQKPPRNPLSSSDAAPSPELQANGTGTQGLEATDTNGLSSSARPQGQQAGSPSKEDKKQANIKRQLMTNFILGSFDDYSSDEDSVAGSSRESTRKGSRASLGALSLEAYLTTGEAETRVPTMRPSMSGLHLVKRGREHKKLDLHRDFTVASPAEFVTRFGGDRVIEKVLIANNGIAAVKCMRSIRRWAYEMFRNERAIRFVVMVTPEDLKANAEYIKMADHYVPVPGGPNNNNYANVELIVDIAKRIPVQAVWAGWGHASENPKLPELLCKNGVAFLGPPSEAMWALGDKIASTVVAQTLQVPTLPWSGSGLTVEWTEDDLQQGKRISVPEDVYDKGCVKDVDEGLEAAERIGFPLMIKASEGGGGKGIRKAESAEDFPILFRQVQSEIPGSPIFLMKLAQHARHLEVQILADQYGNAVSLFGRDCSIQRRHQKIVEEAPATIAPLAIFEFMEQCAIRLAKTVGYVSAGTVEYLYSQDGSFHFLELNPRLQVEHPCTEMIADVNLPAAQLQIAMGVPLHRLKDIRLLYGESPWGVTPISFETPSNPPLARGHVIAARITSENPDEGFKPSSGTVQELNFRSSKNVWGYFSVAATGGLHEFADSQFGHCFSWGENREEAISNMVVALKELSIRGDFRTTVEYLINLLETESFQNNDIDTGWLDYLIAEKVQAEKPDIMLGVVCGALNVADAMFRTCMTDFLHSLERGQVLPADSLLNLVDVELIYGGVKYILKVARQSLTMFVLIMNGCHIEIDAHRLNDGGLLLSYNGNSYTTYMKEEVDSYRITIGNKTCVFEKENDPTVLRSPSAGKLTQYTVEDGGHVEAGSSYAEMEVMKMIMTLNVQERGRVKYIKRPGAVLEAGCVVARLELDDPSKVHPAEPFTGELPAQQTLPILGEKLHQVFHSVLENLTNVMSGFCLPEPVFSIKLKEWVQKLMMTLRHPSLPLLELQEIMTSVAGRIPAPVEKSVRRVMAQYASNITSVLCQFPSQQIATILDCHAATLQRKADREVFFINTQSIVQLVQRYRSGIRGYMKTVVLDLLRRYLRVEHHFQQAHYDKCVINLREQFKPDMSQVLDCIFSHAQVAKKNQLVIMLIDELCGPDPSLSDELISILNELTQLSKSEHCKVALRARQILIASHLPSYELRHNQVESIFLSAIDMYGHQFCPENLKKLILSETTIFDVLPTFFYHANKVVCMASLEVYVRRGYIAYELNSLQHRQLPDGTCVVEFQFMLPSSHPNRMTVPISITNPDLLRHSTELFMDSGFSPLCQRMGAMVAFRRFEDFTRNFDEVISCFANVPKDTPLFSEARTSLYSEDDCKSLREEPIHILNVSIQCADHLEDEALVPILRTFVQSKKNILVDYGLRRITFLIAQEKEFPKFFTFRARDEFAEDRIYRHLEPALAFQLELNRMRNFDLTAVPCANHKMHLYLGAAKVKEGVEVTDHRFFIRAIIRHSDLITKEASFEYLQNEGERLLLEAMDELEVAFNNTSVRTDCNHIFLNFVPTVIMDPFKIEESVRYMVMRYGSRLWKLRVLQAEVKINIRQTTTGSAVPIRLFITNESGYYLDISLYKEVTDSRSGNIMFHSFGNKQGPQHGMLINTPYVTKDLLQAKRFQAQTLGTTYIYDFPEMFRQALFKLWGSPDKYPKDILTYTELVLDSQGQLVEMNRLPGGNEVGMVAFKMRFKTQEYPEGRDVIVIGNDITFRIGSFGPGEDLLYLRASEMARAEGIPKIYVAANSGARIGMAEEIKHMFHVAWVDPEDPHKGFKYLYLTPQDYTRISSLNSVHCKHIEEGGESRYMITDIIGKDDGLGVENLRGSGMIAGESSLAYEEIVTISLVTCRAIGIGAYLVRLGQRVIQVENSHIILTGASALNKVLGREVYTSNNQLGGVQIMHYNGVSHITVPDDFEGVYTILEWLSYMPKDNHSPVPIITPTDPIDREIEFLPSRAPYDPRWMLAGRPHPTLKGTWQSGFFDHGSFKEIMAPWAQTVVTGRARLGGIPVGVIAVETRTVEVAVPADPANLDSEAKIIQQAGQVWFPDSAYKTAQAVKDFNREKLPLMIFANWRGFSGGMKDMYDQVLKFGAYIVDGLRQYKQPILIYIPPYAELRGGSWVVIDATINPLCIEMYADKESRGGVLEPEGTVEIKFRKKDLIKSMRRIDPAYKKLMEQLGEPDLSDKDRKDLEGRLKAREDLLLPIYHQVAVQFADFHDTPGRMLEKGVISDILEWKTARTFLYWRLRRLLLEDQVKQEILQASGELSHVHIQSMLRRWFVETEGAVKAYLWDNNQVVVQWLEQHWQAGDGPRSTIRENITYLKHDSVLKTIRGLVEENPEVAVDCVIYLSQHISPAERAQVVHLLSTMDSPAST

Turning to `CC[C@]1(OC)CC[C@@]2(CC1)NC(=O)C(c1c(C)ccc(-c3ccc(F)cc3)c1C)=C2O` [Example 1-89, (5r,8r)-8-ethyl-3-(4′-fluoro-2,4-dimethylbiphenyl-3-yl)-4-hydroxy-8-methoxy-1-azaspiro[4.5]dec-3-en-2-one], the concentration for half-maximal inhibition (IC50) in assay [1] is 858 nM; in assay [2], > 20 µM.
The corresponding values for `CCC1CCC2(CC1)OC(=O)C(c1cc(-c3ccc(Cl)cc3)ccc1C)=C2O` (centres unmarked) [Example 2-1, 3-(4′-chloro-4-methylbiphenyl-3-yl)-8-ethyl-4-hydroxy-1-oxaspiro[4.5]dec-3-en-2-one] are 243 nM and 4.15 µM.
The corresponding values for `Cc1ccc(-c2ccc(Cl)cc2)c(C)c1C1=C(O)C2(CCCC2)OC1=O` [Example 2-2, 3-(4′-chloro-2,4-dimethylbiphenyl-3-yl)-4-hydroxy-1-oxaspiro[4.4]non-3-en-2-one] are 260 nM and 5.28 µM.
The corresponding values for `Cc1ccc(-c2ccc(Cl)cc2)cc1C1=C(O)C(C)(C)OC1=O` [Example 2-3, 3-(4′-chloro-4-methylbiphenyl-3-yl)-4-hydroxy-5,5-dimethylfuran-2(5H)-one] are 581 nM and 11.7 µM.
Regarding `Cc1ccc(-c2ccc(Cl)cc2)c(C)c1C1=C(O)C2(CCCCC2)OC1=O` [Example 2-4, 3-(4′-chloro-2,4-dimethylbiphenyl-3-yl)-4-hydroxy-1-oxaspiro[4.5]dec-3-en-2-one], the results for the IC50 in assay [1] and in assay [2] were 190 nM and 1.5 µM, respectively.
The corresponding values for `Cc1cc(C)c(-c2ccc(Cl)cc2)c(C)c1C1=C(O)C(C)(C)OC1=O` [Example 2-5, 3-(4′-chloro-2,4,6-trimethylbiphenyl-3-yl)-4-hydroxy-5,5-dimethylfuran-2(5H)-one] are 1480 nM and 5.72 µM.
The corresponding values for `Cc1cc(C)c(-c2ccc(Cl)cc2)c(C)c1C1=C(O)C2(CCCCC2)OC1=O` [Example 2-6, 3-(4′-chloro-2,4,6-trimethylbiphenyl-3-yl)-4-hydroxy-1-oxaspiro[4.5]dec-3-en-2-one] are 2150 nM and 0.139 µM.
In the same order, the values of `COC1CCC2(CC1)OC(=O)C(c1cc(-c3ccccc3Cl)ccc1C)=C2O` (centres unmarked) [Example 2-7, 3-(2′-chloro-4-methylbiphenyl-3-yl)-4-hydroxy-8-methoxy-1-oxaspiro[4.5]dec-3-en-2-one] are 500 nM and > 20 µM.
With `Cc1ccc(-c2ccc(Cl)cc2)cc1C1=C(O)C2(CC2)OC1=O` [Example 2-8, 6-(4′-chloro-4-methylbiphenyl-3-yl)-7-hydroxy-4-oxaspiro[2.4]hept-6-en-5-one], the IC50 was 420 nM in assay [1] and > 20 µM in assay [2].
As for `Cc1ccc(-c2ccc(Cl)cc2)cc1C1=C(O)C2(CCCOC2)OC1=O` (centres unmarked) [Example 2-9, 3-(4′-chloro-4-methylbiphenyl-3-yl)-4-hydroxy-1,7-dioxaspiro[4.5]dec-3-en-2-one], the 50% inhibitory concentration (IC50) was 334 nM in assay [1] and > 20 µM in assay [2].
The corresponding values for `Cc1ccc(-c2ccc(Cl)cc2)cc1C1=C(O)C2(CCCCC2)OC1=O` [Example 2-10, 3-(4′-chloro-4-methylbiphenyl-3-yl)-4-hydroxy-1-oxaspiro[4.5]dec-3-en-2-one] are 161 nM and 2.35 µM.
Take `COC1CCCC2(C1)OC(=O)C(c1cc(-c3ccc(Cl)cc3)c(C)cc1C)=C2O` (centres unmarked) [Example 2-11, 3-(4′-chloro-4,6-dimethylbiphenyl-3-yl)-4-hydroxy-7-methoxy-1-oxaspiro[4.5]dec-3-en-2-one]: the IC50 in assay [1] was determined as 666 nM; in assay [2], 1.55 µM.
The corresponding values for `COC1CCCC2(C1)OC(=O)C(c1c(C)cc(C)c(-c3ccc(Cl)cc3)c1C)=C2O` (centres unmarked) [Example 2-12, 3-(4′-chloro-2,4,6-trimethylbiphenyl-3-yl)-4-hydroxy-7-methoxy-1-oxaspiro[4.5]dec-3-en-2-one] are 4170 nM and 1.15 µM.
In the same order, the values of `COC1CCCC2(C1)OC(=O)C(c1cc(-c3ccc(Cl)cc3)ccc1Cl)=C2O` (centres unmarked) [Example 2-13, 3-(4,4′-dichlorobiphenyl-3-yl)-4-hydroxy-7-methoxy-1-oxaspiro[4.5]dec-3-en-2-one] are 816 nM and > 20 µM.
The corresponding values for `COC1CCCC2(C1)OC(=O)C(c1cc(-c3ccc(Cl)cc3)ccc1C)=C2O` (centres unmarked) [Example 2-14, 3-(4′-chloro-4-methylbiphenyl-3-yl)-4-hydroxy-7-methoxy-1-oxaspiro[4.5]dec-3-en-2-one] are 562 nM and 19.4 µM.
For `Cc1ccc(-c2ccc(Cl)cc2)cc1C1=C(O)C2(CCC3(CC2)OCCO3)OC1=O` [Example 2-15, 11-(4′-chloro-4-methylbiphenyl-3-yl)-12-hydroxy-1,4,9-trioxadispiro[4.2.4.2]tetradec-11-en-10-one], the concentration for half-maximal inhibition (IC50) in assay [1] amounted to 204 nM; in assay [2], 3.68 µM.
On to `COCC1CCC2(CC1)OC(=O)C(c1cc(-c3ccc(Cl)cc3)ccc1Cl)=C2O` (centres unmarked) [Example 2-16, 3-(4,4′-dichlorobiphenyl-3-yl)-4-hydroxy-8-(methoxymethyl)-1-oxaspiro[4.5]dec-3-en-2-one], for which the concentration for half-maximal inhibition (IC50) in assay [1] was found to be 180 nM; in assay [2], 3.34 µM.
The corresponding values for `COCC1CCC2(CC1)OC(=O)C(c1c(C)ccc(-c3ccc(Cl)cc3)c1C)=C2O` (centres unmarked) [Example 2-17, 3-(4′-chloro-2,4-dimethylbiphenyl-3-yl)-4-hydroxy-8-(methoxymethyl)-1-oxaspiro[4.5]dec-3-en-2-one] are 158 nM and 0.652 µM.
On to `COCCC1CCCC2(C1)OC(=O)C(c1cc(-c3ccc(Cl)cc3)ccc1C)=C2O` (centres unmarked) [Example 2-18, 3-(4′-chloro-4-methylbiphenyl-3-yl)-4-hydroxy-7-(2-methoxyethyl)-1-oxaspiro[4.5]dec-3-en-2-one], for which the half-inhibitory concentration (IC50) in assay [1] is 479 nM; in assay [2], 3.41 µM.
As to `COCCC1CCCC2(C1)OC(=O)C(c1cc(-c3ccc(Cl)cc3)ccc1Cl)=C2O` (centres unmarked) [Example 2-19, 3-(4,4′-dichlorobiphenyl-3-yl)-4-hydroxy-7-(2-methoxyethyl)-1-oxaspiro[4.5]dec-3-en-2-one], the IC50 is 530 nM in assay [1] and 10 µM in assay [2].
With `COCC1CCC2(CC1)OC(=O)C(c1cc(-c3ccc(Cl)cc3)ccc1C)=C2O` (centres unmarked) [Example 2-20, 3-(4′-chloro-4-methylbiphenyl-3-yl)-4-hydroxy-8-(methoxymethyl)-1-oxaspiro[4.5]dec-3-en-2-one], the values for the IC50 in assay [1] and in assay [2] were 137 nM and 1.93 µM, respectively.
As for `Cc1ccc(-c2ccc(F)cc2)cc1C1=C(O)C2(CCCCC2)OC1=O` [Example 2-21, 3-(4′-fluoro-4-methylbiphenyl-3-yl)-4-hydroxy-1-oxaspiro[4.5]dec-3-en-2-one], the IC50 in assay [1] was 400 nM; in assay [2] it was > 20 µM.
On to `Cc1ccc(-c2ccc(F)c(F)c2)cc1C1=C(O)C2(CCCC2)OC1=O` [Example 2-22, 3-(3′,4′-difluoro-4-methylbiphenyl-3-yl)-4-hydroxy-1-oxaspiro[4.4]non-3-en-2-one], for which the IC50 in assay [1] is 824 nM; in assay [2] it was > 20 µM.
The corresponding values for `Cc1ccc(-c2ccc(F)c(Cl)c2)cc1C1=C(O)C2(CCCC2)OC1=O` [Example 2-23, 3-(3′-chloro-4′-fluoro-4-methylbiphenyl-3-yl)-4-hydroxy-1-oxaspiro[4.4]non-3-en-2-one] are 1370 nM and > 20 µM.
As for `O=C1OC2(CCCC2)C(O)=C1c1cc(-c2cc(F)c(F)c(F)c2)ccc1Cl` [Example 2-24, 3-(4-chloro-3′,4′,5′-trifluorobiphenyl-3-yl)-4-hydroxy-1-oxaspiro[4.4]non-3-en-2-one], the half-maximal inhibitory concentration (IC50) in assay [1] was 997 nM; in assay [2], > 20 µM.
The corresponding values for `O=C1OC2(CCCCC2)C(O)=C1c1cc(-c2ccc(F)c(F)c2)ccc1Cl` [Example 2-25, 3-(4-chloro-3′,4′-difluorobiphenyl-3-yl)-4-hydroxy-1-oxaspiro[4.5]dec-3-en-2-one] are 442 nM and > 20 µM.
In the same order, the values of `Cc1ccc(-c2ccc(Cl)cc2)c(C)c1C1=C(O)[C@]2(CC[C@]3(CCCO3)CC2)OC1=O` [Example 2-26, (5s,8r)-3-(4′-chloro-2,4-dimethylbiphenyl-3-yl)-4-hydroxy-1,9-dioxadispiro[4.2.4.2]tetradec-3-en-2-one] are 260 nM and 4.8 µM.
The corresponding values for `O=C1OC2(CCC3(CCCO3)CC2)C(O)=C1c1cc(-c2ccc(Cl)cc2)ccc1Cl` (centres unmarked) [Example 2-27, 3-(4,4′-dichlorobiphenyl-3-yl)-4-hydroxy-1,9-dioxadispiro[4.2.4.2]tetradec-3-en-2-one] are 822 nM and 4.15 µM.
Regarding `Cc1ccc(-c2ccc(F)cc2)cc1C1=C(O)[C@]2(CC[C@@]3(CCCO3)CC2)OC1=O` [Example 2-28, (5r,8s)-3-(4′-fluoro-4-methylbiphenyl-3-yl)-4-hydroxy-1,9-dioxadispiro[4.2.4.2]tetradec-3-en-2-one], the results for the IC50 in assay [1] and in assay [2] were 140 nM and 2.5 µM, respectively.
For the molecule `Cc1ccc(-c2ccc(Cl)cc2)cc1C1=C(O)C2(CCC3(CCCO3)CC2)OC1=O` (centres unmarked) [Example 2-29, 3-(4′-chloro-4-methylbiphenyl-3-yl)-4-hydroxy-1,9-dioxadispiro[4.2.4.2]tetradec-3-en-2-one], the IC50 in assay [1] worked out at 321 nM; in assay [2] it was 0.789 µM.
The corresponding values for `Cc1cc(C)c(-c2ccc(Cl)cc2)cc1C1=C(O)[C@]2(CC[C@@]3(CCCO3)CC2)OC1=O` [Example 2-30, (5r,8s)-3-(4′-chloro-4,6-dimethylbiphenyl-3-yl)-4-hydroxy-1,9-dioxadispiro[4.2.4.2]tetradec-3-en-2-one] are 281 nM and 0.032 µM.

The IC50 is the concentration that inhibits the measured activity by half.
